According to patent US20040038199A1, “Phenotyping assay and reagents therefor” (priority 2000, published 2004):
Read-outs that look alike come from different tables or passages of the source.

Tests used:
Type in all cases: cell-based, HIV-1
[1] = tested on: Virus 2 (recombinant generated from plasma of Subject 2 by RVA); experiment: MTT-reduction cell viability drug susceptibility assay, recombinant Virus 2 (RVA); details: for EC50 / fold resistance: Table 3A, Virus 2, method RVA; for fold resistance: relative to WT (HXB2); for resistance, fold higher than wild-type: Virus 2 obtained via the RVA
Experimental: (§1) As previously discussed, recombinant virus produced by the method of the present invention may be used in drug sensitivity assays. A suitable drug sensitivity assay is described in Pauwels et al. (1988) and is an MTT-reduction colorimetric cell viability assay. Cells infected with the virus are plated into the wells of tissue culture plates and incubated with the anti-viral drug to be tested. After incubation, MTT (3-(4,5-dimethylthiazol-2-yl)-2,5diphenyltetrazolium bromide) is added to the cell culture. Only live cells produce the blue formazan product after incubation with MTT. This product is detectable by reading the optical absorbance at 540-590 nm, so the absorbance reading gives a measure of the cells which have been protected from the virus by the anti-viral drug. Viral drug resistance results in a decrease in surviving cells and a decrease in absorbance at 540-590 nm.
(§2) In this experiment, plasma from three HIV-1 infected subjects experiencing virological failure on PI-containing therapy regimens was used as the basis for the FPH to generate recombinant virus. […] Virus from Subject 2 had L10I, M46I, I50V and a Lp1′F mutation at the p1/p6 protease cleavage site, all of which are mutations typical of high level APV resistance.
(§3) The LTR was added to the nested products by PMR prior to transfection. The PMR reactions successfully added the LTR sequences to the nested products (FIG. 9). The first round RT-PCR reactions were also used as templates to generate products for RVA by cotransfection with pHXBΔCSPRTC. Triplicate PCR products were cotransfected into MT4 cells with the linearised plasmid pHXBTOPO1, in the case of the PMR products, and with linearised pHXBΔCSPRTC in for the RVA products. Viral cytopathic effect was observed and titratable virus was harvested in the supernatants. No virus was isolated from virus 2 using FPH and only one of the triplicate cultures from virus 3 yielded infectious virus. All of the RVA cultures produced virus.
(§4) In order to determine whether the extra sequences in the FPH recombinants contain determinants of susceptibility, the recombinant viruses were tested against several drugs. Drug susceptibility was determined by the 3-(4,5dimethylthiazol-2-yl)-2,5-diphenyltetrazolium bromide (MTT)-reduction calorimetric cell viability assay described previously (Pauwels et al. 1988; Robinson et al., 2000). Changes in susceptibility were defined as fold increase in IC50 relative to WT (HXB2). Nucleotide sequences were determined using ABI 3700 capillary sequencers and Big Dye terminators. […] Virus 1 also gave a 2.2-fold (Table 3A) or 4-fold (Table 3B) higher susceptibility to IDV and 2.9-fold (Table 3A) or 3.2-fold higher susceptibility to APV when generated by RVA.

HXB2 = experiment: MTT-reduction cell viability drug susceptibility assay, wild type HXB2 (Table 3A); details: for fold resistance: HXB2 wild type (reference)
Experimental: as §1, §4

[2] = tested on: Virus 4.1, 4.2, 4.3 (recombinants by RVA); experiment: MTT-reduction cell viability drug susceptibility assay, viruses 4.1-4.3 (Table 3B); details: for EC50: Human immunodeficiency virus 1, Table 3B; for fold resistance: Table 3B, relative to WT
Experimental: as §1, §3, §4

[3] = tested on: WT (HXB2) generated by FPH or RVA; experiment: MTT-reduction cell viability drug susceptibility assay, WT (Table 3B); details: for EC50: Human immunodeficiency virus 1, HXB2, Table 3B; for fold resistance: Table 3B
Experimental: as §1, §4

[4] = tested on: Virus 5.1 (FPH), 5.2 (RVA); experiment: MTT-reduction cell viability drug susceptibility assay, viruses 5.1 and 5.2 (Table 3B); details: for EC50: Human immunodeficiency virus 1, Table 3B; for fold resistance: Table 3B, relative to WT
Experimental: as §1, §3, §4

[5] = tested on: Virus 3 (recombinant generated from plasma of Subject 3 by FPH or RVA); experiment: MTT-reduction cell viability drug susceptibility assay, recombinant Virus 3 (FPH or RVA); details: for fold resistance: relative to WT (HXB2); for difference in susceptibility between the two techniques (RVA vs FPH): virus 3
Experimental: as §1, §2, §3, §4

[6] = tested on: Virus 1 (recombinant generated from plasma of Subject 1 by FPH or RVA); experiment: MTT-reduction cell viability drug susceptibility assay, recombinant Virus 1 (FPH or RVA); details: for fold resistance: relative to WT (HXB2); for fold higher susceptibility when generated by RVA than when generated by FPH: virus 1
Experimental: as §1, §2, §3, §4

[7] = tested on: Virus 3.1, 3.2, 3.3 (recombinants by FPH or RVA); experiment: MTT-reduction cell viability drug susceptibility assay, viruses 3.1-3.3 (Table 3B); details: for fold resistance: Table 3B, relative to WT
Experimental: as §1, §3, §4

[8] = Human immunodeficiency virus 1, HXB2 wild type
[9] = Human immunodeficiency virus 1, Table 3A, Virus 3, method FPH
[10] = Human immunodeficiency virus 1, Table 3A, Virus 3, method RVA
[11] = Human immunodeficiency virus 1, Table 3A, Virus 1, method RVA, read-out: Drug EC50
[12] = Human immunodeficiency virus 1, read-out: Drug EC50, Table 3A, Virus 1, method FPH
[13] = Human immunodeficiency virus 1, Table 3B, Virus 3.1, method FPH, read-out: Drug EC50
[14] = Human immunodeficiency virus 1, Table 3B, Virus 3.2, method FPH, read-out: Drug EC50
[15] = Human immunodeficiency virus 1, Table 3B, Virus 3.2, method RVA, read-out: Drug EC50
[16] = Human immunodeficiency virus 1, Table 3B, Virus 3.3, method FPH, read-out: Drug EC50
[17] = Human immunodeficiency virus 1, read-out: Drug EC50, Table 3B, Virus 3.1, method RVA

CC(C)CN(C[C@@H](O)[C@H](Cc1ccccc1)NC(=O)O[C@H]1CCOC1)S(=O)(=O)c1ccc(N)cc1 [APV, amprenavir]
EC50 ([1]; Human immunodeficiency virus 1): 1070 nM
fold resistance [1]: (16) fold
resistance, fold higher than wild-type ([1]; Table 3B experiment): > 21 fold
resistance, fold higher than wild-type ([1]; first printed value (Table 3A experiment)): 16 fold
fold resistance (HXB2): (1.0) fold
EC50 (HXB2; [8]): 67.5 nM
EC50 ([2]; Virus 4.1, method RVA): > 2500 nM
EC50 ([2]; Virus 4.2, method RVA): 2010 nM
EC50 ([2]; Virus 4.3, method RVA): > 2500 nM
fold resistance ([2]; Virus 4.1, method RVA): (>21) fold
fold resistance ([2]; Virus 4.2, method RVA): (17) fold
fold resistance ([2]; Virus 4.3, method RVA): (>21) fold
EC50 ([3]; method FPH): 113 nM
EC50 ([3]; method RVA): 121 nM
fold resistance ([3]; method FPH (reference)): (1.0) fold
fold resistance ([3]; method RVA (reference)): (1.0) fold
EC50 ([4]; Virus 5.1, method FPH): 1570 nM
EC50 ([4]; Virus 5.2, method RVA): 802 nM
fold resistance ([4]; Virus 5.1, method FPH): (14) fold
fold resistance ([4]; Virus 5.2, method RVA): (6.6) fold
EC50 [5, 9]: 718 nM
EC50 [5, 10]: 396 nM
fold resistance ([5]; Table 3A, Virus 3, method FPH): (11) fold
fold resistance ([5]; Table 3A, Virus 3, method RVA): (5.9) fold
difference in susceptibility between the two techniques (RVA vs FPH) ([5]; Table 3B experiment): 2.0 fold
difference in susceptibility between the two techniques (RVA vs FPH) ([5]; first of the two printed values (Table 3A experiment)): 1.9 fold
EC50 [6, 11]: 128 nM
EC50 [6, 12]: 366 nM
fold resistance ([6]; Table 3A, Virus 1, method FPH): (5.4) fold
fold resistance ([6]; Table 3A, Virus 1, method RVA): (1.9) fold
fold higher susceptibility when generated by RVA than when generated by FPH ([6]; Table 3A experiment): 2.9 fold
fold higher susceptibility when generated by RVA than when generated by FPH ([6]; Table 3B experiment): 3.2 fold
EC50 [7, 13]: 865 nM
EC50 [7, 14]: 691 nM
EC50 [7, 15]: 245 nM
EC50 [7, 16]: 619 nM
EC50 [7, 17]: 211 nM
fold resistance ([7]; Virus 3.1, method FPH): (7.7) fold
fold resistance ([7]; Virus 3.1, method RVA): (1.7) fold
fold resistance ([7]; Virus 3.2, method FPH): (6.1) fold
fold resistance ([7]; Virus 3.2, method RVA): (2.0) fold
fold resistance ([7]; Virus 3.3, method FPH): (5.5) fold

CC(C)(C)NC(=O)[C@@H]1CN(Cc2cccnc2)CCN1C[C@@H](O)C[C@@H](Cc1ccccc1)C(=O)N[C@H]1c2ccccc2C[C@H]1O [IDV, indinavir]
EC50 ([1]; Human immunodeficiency virus 1): 18.7 nM
fold resistance [1]: (0.63) fold
fold resistance (HXB2): (1.0) fold
EC50 (HXB2; [8]): 29.7 nM
EC50 ([2]; Virus 4.1, method RVA): 65 nM
EC50 ([2]; Virus 4.2, method RVA): 23.8 nM
EC50 ([2]; Virus 4.3, method RVA): 39.3 nM
fold resistance ([2]; Virus 4.1, method RVA): (2.1) fold
fold resistance ([2]; Virus 4.2, method RVA): (−1.3) fold
fold resistance ([2]; Virus 4.3, method RVA): (1.3) fold
EC50 ([3]; method FPH): 30.8 nM
EC50 ([3]; method RVA): 31.2 nM
fold resistance ([3]; method FPH (reference)): (1.0) fold
fold resistance ([3]; method RVA (reference)): (1.0) fold
EC50 ([4]; Virus 5.1, method FPH): 2230 nM
EC50 ([4]; Virus 5.2, method RVA): 1520 nM
fold resistance ([4]; Virus 5.1, method FPH): (72) fold
fold resistance ([4]; Virus 5.2, method RVA): (49) fold
EC50 [5, 9]: 1250 nM
EC50 [5, 10]: 689 nM
fold resistance ([5]; Table 3A, Virus 3, method FPH): (42) fold
fold resistance ([5]; Table 3A, Virus 3, method RVA): (23) fold
EC50 [6, 11]: 14.2 nM
EC50 [6, 12]: 31.2 nM
fold resistance ([6]; Table 3A, Virus 1, method FPH): (1.1) fold
fold resistance ([6]; Table 3A, Virus 1, method RVA): (0.48) fold
fold higher susceptibility when generated by RVA than when generated by FPH ([6]; Table 3A experiment): 2.2 fold
fold higher susceptibility when generated by RVA than when generated by FPH ([6]; Table 3B experiment): 4 fold
EC50 [7, 13]: 60.1 nM
EC50 [7, 14]: 57.1 nM
EC50 [7, 15]: 16.5 nM
EC50 [7, 16]: 53.2 nM
EC50 [7, 17]: 11.6 nM
fold resistance ([7]; Virus 3.1, method FPH): (2.0) fold
fold resistance ([7]; Virus 3.1, method RVA): (−2.7) fold
fold resistance ([7]; Virus 3.2, method FPH): (1.9) fold
fold resistance ([7]; Virus 3.2, method RVA): (−1.9) fold
fold resistance ([7]; Virus 3.3, method FPH): (1.7) fold

Cc1c(O)cccc1C(=O)N[C@@H](CSc1ccccc1)[C@H](O)CN1C[C@H]2CCCC[C@H]2C[C@H]1C(=O)NC(C)(C)C [NFV]
EC50 [1]: 70.8 nM
fold resistance [1]: (2.4) fold
EC50 (HXB2; HXB2 wild type): 29.9 nM
fold resistance (HXB2): (1.0) fold
EC50 ([5]; Table 3A, Virus 3, method FPH): 591 nM
fold resistance ([5]; Table 3A, Virus 3, method FPH): (20) fold
EC50 ([5]; Table 3A, Virus 3, method RVA): 390 nM
fold resistance ([5]; Table 3A, Virus 3, method RVA): (13) fold
EC50 ([6]; Table 3A, Virus 1, method FPH, read-out: Drug EC50): 70 nM
fold resistance ([6]; Table 3A, Virus 1, method FPH): (2.3) fold
EC50 ([6]; Table 3A, Virus 1, method RVA, read-out: Drug EC50): 26.9 nM
fold resistance ([6]; Table 3A, Virus 1, method RVA): (0.90) fold
